{"source": "patent US12377110B2", "about": "“Fospropofol methods and compositions” (Epalex Corporation, priority 2019, dated 2025)", "key": {"[1]": {"system": "adult women and men experiencing moderate to severe migraine headache", "assay": "Study A17: safety-tolerability (TEAEs)", "details": "N = 18, 800 mg oral", "description": "The study is planned to complete approximately 85 subjects. • Enrolled subjects will be asked to come to the study site for treatment when they experience a qualifying migraine headache. Dosing must occur within 4 hours after onset of the migraine symptoms. If treatment at the study site is not feasible or practicable within 4 hours after onset of migraine symptoms, subjects should use their usual medication for that headache and attempt to visit the clinic for treatment as soon as possible (within 4 hours) after onset of their next migraine headache. Dosing must occur within 60 days after enrollment (see Post-enrollment Period below). • At clinic check-in for treatment, study personnel will verify eligibility for closing regarding the criteria for a qualifying headache and adherence to post-enrollment study restrictions (see Eligibility for Dosing below). • Treatment will consist of a single oral dose of fospropofol disodium. […] Because the prevalence of migraine headaches is higher in women than in men, efforts will be made to enroll at least 50% women. • Subjects must meet the general inclusion and exclusion criteria listed below (Inclusion Criteria and Exclusion Criteria) at screening to be enrolled in the study. To be eligible for fospropofol disodium treatment after onset of a migraine headache, enrolled subjects must meet criteria specific to the presenting headache at clinic check-in (see Qualifying Headache below) and adhere to study restrictions specific to the period between enrollment and clinic check-in (see Post-enrollment Restrictions below). • Inclusion Criteria Subjects must meet all of the following criteria at screening to be enrolled in the study: • 1. Written informed consent approved by the Institutional Review Board (IRB) given before any study-related procedures are performed • 2. […] Complete abstinence alone can be used as a method of contraception. • 6. […] Able to comprehend the nature of the study, capable of giving written informed consent, and able to communicate effectively with clinic staff (as assessed by the investigator) • 8. Available to volunteer for the entire study duration and willing to adhere to all protocol requirements, including the post-enrollment restrictions (see Post-enrollment Restrictions below) • 9. Agrees not to post any information related to the study on any website or social media site (e.g., Facebook, Twitter, LinkedIn, Google+, etc.) until the entire trial has been completed • 10. Willing to forgo rescue medicine for at least 2 hours after initiation of treatment with study drug (see In-Clinic Rescue Medicine) • Exclusion Criteria Subjects to whom any of the following criteria apply at screening will be excluded: • 1. History of hemiplegic migraine (at any time in the past). • 2. History of headaches of any type occurring on ≥15 days/month during any of the 3 months prior to screening. • 3."}, "Beagle dogs [2]": {"system": "Beagle dogs", "assay": "Study No. 15-4 (GLP): 14-day once daily oral gavage toxicity of fospropofol disodium", "format": "in vivo", "description": "(§1) The purpose of Study No. 15-4 (GLP) was to determine the potential toxicity of fospropofol in Beagle dogs when administered once daily by oral gavage for 14 days. […] Because the treatment-related clinical observations (consistent with the expected transient sedative actions of fospropofol) and effects on hematology and clinical chemistry parameters were considered nonadverse, the NOAEL was determined to be 160 mg/kg/day (3200 mg/m^2/day).\n(§2) As in the rat, CNS-related clinical signs were observed which were consistent with the established pharmacodynamic effects of fospropofol. […] The NOAEL was determined to be 160 mg/kg/day (3200 mg/m^2/d) in male and female Beagle dogs."}, "[3]": {"assay": "Study No. 15-4 (GLP): 14-day once daily oral gavage toxicity of fospropofol disodium", "format": "in vivo, Beagle dogs", "details": "both sexes, dog, in vivo; 14 days once daily oral gavage, Beagle dogs", "description": "as §1, §2"}, "Beagle dogs [4]": {"system": "Beagle dogs", "assay": "Study No. 15-2 (non-GLP): MTD and 7-day once daily oral gavage toxicity of fospropofol disodium", "format": "in vivo"}, "[5]": {"assay": "Study No. 15-2 (non-GLP): MTD and 7-day once daily oral gavage toxicity of fospropofol disodium", "format": "in vivo, Beagle dogs", "details": "dog, in vivo, Beagle dogs"}}, "data": [{"smiles": "CC(C)c1cccc(C(C)C)c1OCOP(=O)([O-])O.[Na+]", "note": "[fospropofol disodium]", "values": [{"measurement": "Number of TEAEs, E, by severity", "setting": "[1]; Mild", "result": 5}, {"measurement": "Number of subjects with at least 1 TEAE, by severity", "setting": "[1]; Mild", "result": 3}, {"measurement": "Number of TEAEs, E, by severity", "setting": "[1]; Moderate", "result": 3}, {"measurement": "Number of subjects with at least 1 TEAE, by severity", "setting": "[1]; Moderate", "result": "3^1"}, {"measurement": "Dry mouth: number of TEAEs, E", "setting": "[1]", "result": 1}, {"measurement": "Dry mouth: subjects with TEAE, %", "setting": "[1]", "result": 7.7, "unit": "%"}, {"measurement": "Dysgeusia: number of TEAEs, E", "setting": "[1]", "result": 1}, {"measurement": "Dysgeusia: subjects with TEAE, %", "setting": "[1]", "result": 5.6, "unit": "%"}, {"measurement": "Gastrointestinal disorders: number of TEAEs, E", "setting": "[1]", "result": 2}, {"measurement": "Gastrointestinal disorders: subjects with TEAE, %", "setting": "[1]", "result": 11.1, "unit": "%"}, {"measurement": "Genital paraesthesia: number of TEAEs, E", "setting": "[1]", "result": 2}, {"measurement": "Genital paraesthesia: subjects with TEAE, %", "setting": "[1]", "result": 5.6, "unit": "%"}, {"measurement": "Nausea: number of TEAEs, E", "setting": "[1]", "result": 1}, {"measurement": "Nausea: subjects with TEAE, %", "setting": "[1]", "result": 7.7, "unit": "%"}, {"measurement": "Nervous system disorders: number of TEAEs, E", "setting": "[1]", "result": 4}, {"measurement": "Nervous system disorders: subjects with TEAE, %", "setting": "[1]", "result": 16.7, "unit": "%"}, {"measurement": "Number of TEAEs, E", "setting": "[1]", "result": 9}, {"measurement": "Paraesthesia: number of TEAEs, E", "setting": "[1]", "result": 2}, {"measurement": "Paraesthesia: subjects with TEAE, %", "setting": "[1]", "result": 11.1, "unit": "%"}, {"measurement": "Pruritus: number of TEAEs, E", "setting": "[1]", "result": 1}, {"measurement": "Pruritus: subjects with TEAE, %", "setting": "[1]", "result": 5.6, "unit": "%"}, {"measurement": "Reproductive system and breast disorders: number of TEAEs, E", "setting": "[1]", "result": 2}, {"measurement": "Reproductive system and breast disorders: subjects with TEAE, %", "setting": "[1]", "result": 5.6, "unit": "%"}, {"measurement": "Skin and subcutaneous tissue disorders: number of TEAEs, E", "setting": "[1]", "result": 1}, {"measurement": "Skin and subcutaneous tissue disorders: subjects with TEAE, %", "setting": "[1]", "result": 5.6, "unit": "%"}, {"measurement": "Somnolence: number of TEAEs, E", "setting": "[1]", "result": 1}, {"measurement": "Somnolence: subjects with TEAE, %", "setting": "[1]", "result": 5.6, "unit": "%"}, {"measurement": "Subjects with at least 1 TEAE, %", "setting": "[1]", "result": 33.3, "unit": "%"}, {"measurement": "Relation of TEAEs to study drug: Dry mouth", "setting": "[1]; Possibly related", "result": 0}, {"measurement": "Relation of TEAEs to study drug: Dysgeusia", "setting": "[1]; Possibly related", "result": 0}, {"measurement": "Relation of TEAEs to study drug: Gastrointestinal disorders", "setting": "[1]; Possibly related", "result": 1}, {"measurement": "Relation of TEAEs to study drug: Genital paraesthesia", "setting": "[1]; Possibly related", "result": 0}, {"measurement": "Relation of TEAEs to study drug: Nausea", "setting": "[1]; Possibly related", "result": 1}, {"measurement": "Relation of TEAEs to study drug: Nervous system disorders", "setting": "[1]; Possibly related", "result": 0}, {"measurement": "Relation of TEAEs to study drug: Number of TEAEs, E", "setting": "[1]; Possibly related", "result": 2}, {"measurement": "Relation of TEAEs to study drug: Paraesthesia", "setting": "[1]; Possibly related", "result": 0}, {"measurement": "Relation of TEAEs to study drug: Pruritus", "setting": "[1]; Possibly related", "result": 1}, {"measurement": "Relation of TEAEs to study drug: Reproductive system and breast disorders", "setting": "[1]; Possibly related", "result": 0}, {"measurement": "Relation of TEAEs to study drug: Skin and subcutaneous tissue disorders", "setting": "[1]; Possibly related", "result": 1}, {"measurement": "Relation of TEAEs to study drug: Somnolence", "setting": "[1]; Possibly related", "result": 0}, {"measurement": "Relation of TEAEs to study drug: Dry mouth", "setting": "[1]; Probably related", "result": 1}, {"measurement": "Relation of TEAEs to study drug: Dysgeusia", "setting": "[1]; Probably related", "result": 1}, {"measurement": "Relation of TEAEs to study drug: Gastrointestinal disorders", "setting": "[1]; Probably related", "result": 1}, {"measurement": "Relation of TEAEs to study drug: Genital paraesthesia", "setting": "[1]; Probably related", "result": 2}, {"measurement": "Relation of TEAEs to study drug: Nervous system disorders", "setting": "[1]; Probably related", "result": 4}, {"measurement": "Relation of TEAEs to study drug: Number of TEAEs, E", "setting": "[1]; Probably related", "result": 7}, {"measurement": "Relation of TEAEs to study drug: Paraesthesia", "setting": "[1]; Probably related", "result": 2}, {"measurement": "Relation of TEAEs to study drug: Pruritus", "setting": "[1]; Probably related", "result": 0}, {"measurement": "Relation of TEAEs to study drug: Reproductive system and breast disorders", "setting": "[1]; Probably related", "result": 2}, {"measurement": "Relation of TEAEs to study drug: Skin and subcutaneous tissue disorders", "setting": "[1]; Probably related", "result": 0}, {"measurement": "Relation of TEAEs to study drug: Somnolence", "setting": "[1]; Probably related", "result": 1}, {"measurement": "Number of TEAEs, E, by severity", "setting": "[1]; Severe", "result": 1}, {"measurement": "Number of subjects with at least 1 TEAE, by severity", "setting": "[1]; Severe", "result": "1^1"}, {"measurement": "Tolerability", "setting": "Beagle dogs [2]; 0, 50, 100, and 160 mg/kg/day for 14 consecutive days", "result": "well tolerated at all close levels with no adverse findings"}, {"measurement": "Mortalities", "setting": "Beagle dogs [2]; 0, 50, 100, and 160 mg/kg/day for 14 days", "result": "no mortalities"}, {"measurement": "NOAEL", "setting": "Beagle dogs [2]; 14 days once daily oral gavage, Beagle dogs", "result": 3200, "unit": "mg/m^2/day"}, {"measurement": "Histopathology, all tissues including GIT-related", "setting": "Beagle dogs [2]; up to 160 mg/kg/day", "result": "no treatment-related histopathological findings"}, {"measurement": "Body weights, cardiovascular evaluations (ECGs, QTc), ophthalmology, clinical pathology, organ weights", "setting": "Beagle dogs [2]; up to 160 mg/kg/day for 14 days", "result": "no toxicologically significant changes"}, {"measurement": "NOAEL at 14 days", "setting": "[3]", "result": 160, "unit": "mg/kg/day"}, {"measurement": "MTD", "setting": "Beagle dogs [4]; Beagle dogs", "result": 3200, "unit": "mg/m^2/day"}, {"measurement": "Tolerability", "setting": "Beagle dogs [4]; single fospropofol doses up to 120 mg/kg or 120 and 160 mg/kg/day once daily for 7 days", "result": "tolerated at all closes with no mortality or adverse findings"}, {"measurement": "MTD at 7 days", "setting": "[5]", "result": 160, "unit": "mg/kg/day"}]}]}
